Assay results from patent US9206128B2 (Constellation Pharmaceuticals, Inc., priority 2011, dated 2015).

Experiments:
[1] = target: Y641N EZH2 (Homo sapiens, UniProt Q15910, Y641N); assay: Y641N EZH2 activity inhibition assay (as EZH2 assay, reconstituted H3K27Me2 oligonucleosomes as substrate); type: biochemical; settings: Y641N EZH2 mutant enzyme
Protocol: (§1) EZH2 Assay: Assays were carried out by mixing rPRC2 together with biotinylated oligonucleosome substrates in the presence of the radio-labeled enzyme co-factor, S-adenosyl-L-methionine (^3H SAM) (Perkin Elmer) and monitoring the enzymatically mediated transfer of tritiated methyl groups from ^3H SAM to histone lysine residues. The amount of resulting tritiated methyl histone product was measured by first capturing the biotinylated oligonucleosomes in streptavidin (SAV) coated FlashPlates (Perkin Elmer), followed by a wash step to remove un-reacted ^3H SAM, and then counting on a TopCount NXT 384 well plate scintillation counter (Perkin Elmer). The final assay conditions for EZH2 were as follows: 50 mM Tris Buffer pH 8.5, 1 mM DTT, 69 μM Brij-35 detergent, 5.0 mM MgCl2, 0.1 mg/mL BSA, 0.2 μM ^3H SAM, 0.2 μM biotinylated oligonucleosomes, 3.6 μM H3K27me3 peptide and 2 nM EZH2.
(§2) A 12.5 μL volume of the HMT enzyme, H3K27me3 peptide and oligonucleosome substrate in assay buffer was added to each well of the assay plate using a Multidrop Combi (ThermoFisher). Compounds were pre-incubated with the enzyme for 20 min, followed by initiation of the methyltransferase reaction by addition of 12.5 μL of 3H SAM in assay buffer (final volume=25 μL). The final concentrations of compounds ranged from a top default concentration of 80 μM down to 0.16 μM in ten 2-fold dilution steps. Reactions were carried out for 60 minutes and quenched with 20 μL per well of 1.96 mM SAH, 50 mM Tris PH 8.5, 200 mM EDTA. Stopped reactions were transferred to SAV coated Flashplates (Perkin Elmer), incubated for 120 min, washed with a plate washer, and then read on the TopCount NXT (1.0 min/well) to measure the amount of methyl histone product formed during the reaction.

[2] = target: EZH2 (Homo sapiens, UniProt Q15910); assay: EZH2 activity inhibition assay (rPRC2, 3H SAM, biotinylated oligonucleosomes, FlashPlate); type: biochemical; settings: rPRC2, 2 nM EZH2, 0.2 μM 3H SAM, top concentration 80 μM
Protocol: as §1, with “Elmer).” for “Elmer). The final assay conditions for EZH2 were as follows: 50 mM Tris Buffer pH 8.5, 1 mM DTT, 69 μM Brij-35 detergent, 5.0 mM MgCl2, 0.1 mg/mL BSA, 0.2 μM ^3H SAM, 0.2 μM biotinylated oligonucleosomes, 3.6 μM H3K27me3 peptide and 2 nM EZH2.”
as §2, with “The final concentrations of compounds ranged from a top default concentration of 80 μM down to 0.16 μM in ten 2-fold dilution steps. Reactions were carried out for 60 minutes and quenched with 20 μL per well of 1.96 mM SAH, 50 mM Tris PH 8.5, 200 mM EDTA.” left out

Sequence of Y641N EZH2 (Q15910 whole entry Y641N): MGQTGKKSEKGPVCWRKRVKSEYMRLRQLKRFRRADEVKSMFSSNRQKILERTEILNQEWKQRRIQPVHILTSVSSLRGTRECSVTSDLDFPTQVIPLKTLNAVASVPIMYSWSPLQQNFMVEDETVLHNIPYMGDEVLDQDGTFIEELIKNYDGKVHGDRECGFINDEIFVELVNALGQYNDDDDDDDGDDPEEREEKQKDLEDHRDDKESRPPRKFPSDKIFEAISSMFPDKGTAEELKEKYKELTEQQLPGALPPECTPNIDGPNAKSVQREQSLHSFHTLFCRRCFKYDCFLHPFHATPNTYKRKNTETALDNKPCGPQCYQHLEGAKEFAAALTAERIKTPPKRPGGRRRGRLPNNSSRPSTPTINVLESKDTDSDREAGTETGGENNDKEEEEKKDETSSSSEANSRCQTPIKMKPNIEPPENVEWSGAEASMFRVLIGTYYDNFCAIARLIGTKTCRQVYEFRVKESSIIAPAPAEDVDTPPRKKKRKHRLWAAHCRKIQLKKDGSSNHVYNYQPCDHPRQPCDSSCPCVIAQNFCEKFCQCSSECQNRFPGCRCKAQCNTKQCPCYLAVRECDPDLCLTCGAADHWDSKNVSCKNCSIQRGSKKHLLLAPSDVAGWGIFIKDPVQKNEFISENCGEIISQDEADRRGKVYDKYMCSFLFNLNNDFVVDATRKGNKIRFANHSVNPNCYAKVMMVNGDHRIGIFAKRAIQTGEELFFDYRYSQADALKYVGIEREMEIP
Sequence of Y641N EZH2 (O75530 whole entry partner): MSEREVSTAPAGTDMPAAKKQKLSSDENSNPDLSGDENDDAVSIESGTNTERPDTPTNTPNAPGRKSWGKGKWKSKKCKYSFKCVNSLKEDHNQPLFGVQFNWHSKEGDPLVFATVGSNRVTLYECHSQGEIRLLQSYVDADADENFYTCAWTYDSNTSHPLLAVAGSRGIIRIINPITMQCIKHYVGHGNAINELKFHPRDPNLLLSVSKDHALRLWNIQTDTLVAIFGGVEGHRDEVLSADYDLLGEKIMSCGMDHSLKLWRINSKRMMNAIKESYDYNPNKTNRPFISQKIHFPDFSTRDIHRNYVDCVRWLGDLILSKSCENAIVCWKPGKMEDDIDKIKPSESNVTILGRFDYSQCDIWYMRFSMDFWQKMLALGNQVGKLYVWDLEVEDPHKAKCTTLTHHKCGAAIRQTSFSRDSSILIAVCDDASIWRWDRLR
Sequence of Y641N EZH2 (Q15022 whole entry partner): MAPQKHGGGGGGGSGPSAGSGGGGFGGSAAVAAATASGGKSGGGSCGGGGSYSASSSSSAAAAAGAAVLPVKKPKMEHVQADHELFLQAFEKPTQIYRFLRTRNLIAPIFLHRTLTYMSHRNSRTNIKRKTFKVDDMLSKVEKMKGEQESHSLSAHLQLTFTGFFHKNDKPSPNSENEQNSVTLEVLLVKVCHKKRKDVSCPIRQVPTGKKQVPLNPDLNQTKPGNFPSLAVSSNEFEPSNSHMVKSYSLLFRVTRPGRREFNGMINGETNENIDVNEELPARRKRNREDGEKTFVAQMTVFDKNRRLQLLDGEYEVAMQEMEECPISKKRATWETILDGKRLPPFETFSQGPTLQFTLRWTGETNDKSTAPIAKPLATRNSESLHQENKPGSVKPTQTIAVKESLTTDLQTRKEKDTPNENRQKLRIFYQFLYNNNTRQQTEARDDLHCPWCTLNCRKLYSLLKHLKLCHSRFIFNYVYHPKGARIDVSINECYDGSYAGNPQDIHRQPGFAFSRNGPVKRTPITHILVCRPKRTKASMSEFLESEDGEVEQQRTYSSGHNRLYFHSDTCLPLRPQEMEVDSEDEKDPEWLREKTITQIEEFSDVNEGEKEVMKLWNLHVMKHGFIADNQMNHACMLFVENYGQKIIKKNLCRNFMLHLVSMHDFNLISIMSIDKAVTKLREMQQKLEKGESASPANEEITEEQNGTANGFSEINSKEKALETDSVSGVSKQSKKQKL
Sequence of EZH2 (Q15910 whole entry): as the sequence (Q15910 whole entry Y641N) above, with N641Y counted along it
Sequence of EZH2 (O75530 whole entry partner): as the sequence (O75530 whole entry partner) above
Sequence of EZH2 (Q15022 whole entry partner): as the sequence (Q15022 whole entry partner) above

| Compound | IC50 [1] [µM] | IC50 [2] [µM] |
| --- | --- | --- |
| Cc1cc(C)c(CN(C)C(=O)c2ccc(Oc3cccc(-c4ccncn4)c3C#N)c(Cl)c2)c(O)n1 [Compound I-17, 3-chloro-4-(2-cyano-3-(pyrimidin-4-yl)phenoxy)-N-((2-hydroxy-4,6-dimethylpyridin-3-yl)methyl)-N-methylbenzamide] | > 50 | 1 to 10 |
| Cc1cc(C)c(CNC(=O)c2ccc(Nc3ccccc3)nc2)c(=O)[nH]1 [Compound I-18] | > 80 | 10 to 50 |
| Cc1cc(C)c(CNC(=O)c2ccc(Nc3ccccc3)cc2)c(=O)[nH]1 [Compound I-19] | 10 to 50 | 1 to 10 |
| Cc1cc(C)c(CN(C)C(=O)c2ccc(Oc3ccccc3)cc2)c(O)n1 [Compound I-20, N-((2-hydroxy-4,6-dimethylpyridin-3-yl)methyl)-N-methyl-4-phenoxybenzamide] | > 50 | 1 to 10 |
| Cc1cc(C)c(CNC(=O)c2ccc(Oc3ccccc3)cn2)c(=O)[nH]1 [Compound I-21, N-((2-hydroxy-4,6-dimethylpyridin-3-yl)methyl)-5-phenoxypicolinamide] | 10 to 50 | 1 to 10 |
| Cc1cc(C)c(CNC(=O)c2ccc(C(O)c3ccccc3)cc2)c(=O)[nH]1 (stereo not shown) [Compound I-24] | > 50 | 10 to 50 |
| Cc1cc(C)c(CNC(=O)c2ccc(C(C)(O)c3ccccc3)cc2)c(=O)[nH]1 (stereo not shown) [Compound I-25] | 10 to 50 | 1 to 10 |
| Cc1cc(C)c(CNC(=O)c2ccc(S(=O)(=O)c3ccccc3)cc2)c(=O)[nH]1 [Compound I-26, N-((2-hydroxy-4,6-dimethylpyridin-3-yl)methyl)-4-(phenylsulfonyl)benzamide] | > 80 | 10 to 50 |
| Cc1cc(C)c(CNC(=O)c2ccc(Oc3ccccc3)cc2C)c(=O)[nH]1 [Compound I-28, N-((2-hydroxy-4,6-dimethylpyridin-3-yl)methyl)-2-methyl-4-phenoxybenzamide] | 10 to 50 | 1 to 10 |
| Cc1cc(C)c(CNC(=O)c2ccc([S+]([O-])c3ccccc3)cc2)c(=O)[nH]1 (stereo not shown) [Compound I-29, N-((2-hydroxy-4,6-dimethylpyridin-3-yl)methyl)-4-(phenylsulfinyl)benzamide] | > 80 | 10 to 50 |
| Cc1cc(C)c(CNC(=O)c2ccc(Cc3ccccc3)cc2)c(=O)[nH]1 [Compound I-34, 4-benzyl-N-((2-hydroxy-4,6-dimethylpyridin-3-yl)methyl)benzamide] | 1 to 10 | < 1 |
| Cc1ccc(OC(C)c2ccc(C(=O)NCc3c(C)cc(C)[nH]c3=O)cc2)cc1 (stereo not shown) [Compound I-35, N-((2-hydroxy-4,6-dimethylpyridin-3-yl)methyl)-4-(1-(p-tolyloxy)ethyl)benzamide] | 1 to 10 | < 1 |
| Cc1cc(C)c(CNC(=O)c2ccc(CN(C)c3ccccc3)cc2)c(=O)[nH]1 [Compound I-36, N-((2-hydroxy-4,6-dimethylpyridin-3-yl)methyl)-4-((methyl(phenyl)amino)methyl)benzamide] | > 80 | 10 to 50 |
| Cc1cc(C)c(CNC(=O)c2ccc(Oc3ccccc3)c(C)c2)c(=O)[nH]1 [Compound I-37, N-((2-hydroxy-4,6-dimethylpyridin-3-yl)methyl)-3-methyl-4-phenoxybenzamide] | 1 to 10 | 1 to 10 |
| Cc1cc(C)c(CNC(=O)c2ccc(C(C)Oc3ccccc3C)cc2)c(=O)[nH]1 (stereo not shown) [Compound I-38, N-((2-hydroxy-4,6-dimethylpyridin-3-yl)methyl)-4-(1-(o-tolyloxy)ethyl)benzamide] | 1 to 10 | < 1 |
| Cc1cc(C)c(CNC(=O)c2ccc(CNc3ccccc3)cc2)c(=O)[nH]1 [Compound I-40, N-((2-hydroxy-4,6-dimethylpyridin-3-yl)methyl)-4-((phenylamino)methyl)benzamide] | 10 to 50 | 1 to 10 |
| Cc1cc(C)c(CNC(=O)c2ccc(C(Oc3ccccc3)C(C)C)cc2)c(=O)[nH]1 (stereo not shown) [Compound I-43, N-((2-hydroxy-4,6-dimethylpyridin-3-yl)methyl)-4-(2-methyl-1-phenoxypropyl)benzamide] | > 50 | 10 to 50 |
| Cc1cc(C)c(CNC(=O)c2ccc3c(c2)CCC3Oc2ccccc2)c(=O)[nH]1 (stereo not shown) [Compound I-45, N-((2-hydroxy-4,6-dimethylpyridin-3-yl)methyl)-1-phenoxy-2,3-dihydro-1H-indene-5-carboxamide] | > 80 | > 50 |
| Cc1cc(C(F)(F)F)[nH]c(=O)c1CNC(=O)c1ccc(Oc2ccccc2)cc1 [Compound I-47, N-((2-hydroxy-4-methyl-6-(trifluoromethyl)pyridin-3-yl)methyl)-4-phenoxybenzamide] | 10 to 50 | > 50 |

Continued, values first:

| IC50 [1] [µM] | IC50 [2] [µM] | Compound |
| --- | --- | --- |
| 1 to 10 | < 1 | Cc1cc(C)c(CNC(=O)c2ccc(Oc3ccccc3)cc2Cl)c(=O)[nH]1 [Compound I-22] |
| < 1 | < 1 | Cc1cc(C)c(CNC(=O)c2ccc(C(C)Oc3ccccc3)cc2)c(=O)[nH]1 (stereo not shown) [Compound I-23, N-((2-hydroxy-4,6-dimethylpyridin-3-yl)methyl)-4-(1-phenoxyethyl)benzamide] |
| 1 to 10 | < 1 | Cc1cc(C)c(CNC(=O)c2ccc(COc3ccccc3)cc2C)c(=O)[nH]1 [Compound I-27, N-((2-hydroxy-4,6-dimethylpyridin-3-yl)methyl)-2-methyl-4-(phenoxymethyl)benzamide] |
| < 1 | < 1 | Cc1cc(C)c(CNC(=O)c2ccc([C@H](C)Oc3ccccc3)cc2)c(O)n1 [Compound I-31, (S)—N-((2-hydroxy-4,6-dimethylpyridin-3-yl)methyl)-4-(1-phenoxyethyl)benzamide] |
| 1 to 10 | < 1 | COc1cc(Oc2ccccc2)ccc1C(=O)NCc1c(C)cc(C)[nH]c1=O [Compound I-32, N-((2-hydroxy-4,6-dimethylpyridin-3-yl)methyl)-2-methoxy-4-phenoxybenzamide] |
| < 1 | < 1 | Cc1cccc(OC(C)c2ccc(C(=O)NCc3c(C)cc(C)[nH]c3=O)cc2)c1 (stereo not shown) [Compound I-39, N-((2-hydroxy-4,6-dimethylpyridin-3-yl)methyl)-4-(1-(m-tolyloxy)ethyl)benzamide] |
| < 1 | < 1 | Cc1cc(C)c(CNC(=O)c2ccc(C(C)Oc3ccccc3F)cc2)c(=O)[nH]1 (stereo not shown) [Compound I-41, 4-(1-(2-fluorophenoxy)ethyl)-N-((2-hydroxy-4,6-dimethylpyridin-3-yl)methyl)benzamide] |
| < 1 | < 1 | Cc1cc(C)c(CNC(=O)c2ccc(C(C)Oc3cccc(F)c3)cc2)c(=O)[nH]1 (stereo not shown) [Compound I-42, 4-(1-(3-fluorophenoxy)ethyl)-N-((2-hydroxy-4,6-dimethylpyridin-3-yl)methyl)benzamide] |
| < 1 | < 1 | CCC(Oc1ccccc1)c1ccc(C(=O)NCc2c(C)cc(C)[nH]c2=O)cc1 (stereo not shown) [Compound I-44, N-((2-hydroxy-4,6-dimethylpyridin-3-yl)methyl)-4-(1-phenoxypropyl)benzamide] |
| < 1 | < 1 | Cc1cc(C)c(CNC(=O)c2ccc(C(C)Oc3ccc(F)cc3)cc2)c(=O)[nH]1 (stereo not shown) [Compound I-46, 4-(1-(4-fluorophenoxy)ethyl)-N-((2-hydroxy-4,6-dimethylpyridin-3-yl)methyl)benzamide] |
